Reference: BigSolDB 2.1

## O=[N+]([O-])/N=C1\NCCN1Cc1ccc(Cl)nc1
In ethanol, 293.15 K
  solubility (mole fraction): 0.0006
In ethanol, 298.15 K
  solubility (mole fraction): 0.0008
In ethanol, 303.15 K
  solubility (mole fraction): 0.0009
In ethanol, 308.15 K
  solubility (mole fraction): 0.0012
In ethanol, 313.15 K
  solubility (mole fraction): 0.0015
In ethanol, 318.15 K
  solubility (mole fraction): 0.0019
In ethanol, 323.15 K
  solubility (mole fraction): 0.0025
In ethanol, 328.15 K
  solubility (mole fraction): 0.003
In ethanol, 333.15 K
  solubility (mole fraction): 0.0036
In ethyl acetate, 293.15 K
  solubility (mole fraction): 0.0027
In ethyl acetate, 298.15 K
  solubility (mole fraction): 0.0029
In ethyl acetate, 303.15 K
  solubility (mole fraction): 0.0034
In ethyl acetate, 308.15 K
  solubility (mole fraction): 0.0039
In ethyl acetate, 313.15 K
  solubility (mole fraction): 0.0044
In ethyl acetate, 318.15 K
  solubility (mole fraction): 0.0053
In ethyl acetate, 323.15 K
  solubility (mole fraction): 0.0061
In ethyl acetate, 328.15 K
  solubility (mole fraction): 0.0071
In ethyl acetate, 333.15 K
  solubility (mole fraction): 0.0084
In methanol, 293.15 K
  solubility (mole fraction): 0.0012
In methanol, 298.15 K
  solubility (mole fraction): 0.0015
In methanol, 303.15 K
  solubility (mole fraction): 0.0018
In methanol, 308.15 K
  solubility (mole fraction): 0.0023
In methanol, 313.15 K
  solubility (mole fraction): 0.0027
In methanol, 318.15 K
  solubility (mole fraction): 0.0036
In methanol, 323.15 K
  solubility (mole fraction): 0.0044
In methanol, 328.15 K
  solubility (mole fraction): 0.0054
In methanol, 333.15 K
  solubility (mole fraction): 0.0067
In methyl acetate, 293.15 K
  solubility (mole fraction): 0.0037
In methyl acetate, 298.15 K
  solubility (mole fraction): 0.0042
In methyl acetate, 303.15 K
  solubility (mole fraction): 0.0048
In methyl acetate, 308.15 K
  solubility (mole fraction): 0.0057
In methyl acetate, 313.15 K
  solubility (mole fraction): 0.0067
In methyl acetate, 318.15 K
  solubility (mole fraction): 0.0078
In methyl acetate, 323.15 K
  solubility (mole fraction): 0.0092
In methyl acetate, 328.15 K
  solubility (mole fraction): 0.0107
In n-butanol, 293.15 K
  solubility (mole fraction): 0.0004
In n-butanol, 298.15 K
  solubility (mole fraction): 0.0005
In n-butanol, 303.15 K
  solubility (mole fraction): 0.0006
In n-butanol, 308.15 K
  solubility (mole fraction): 0.0008
In n-butanol, 313.15 K
  solubility (mole fraction): 0.001
In n-butanol, 318.15 K
  solubility (mole fraction): 0.0013
In n-butanol, 323.15 K
  solubility (mole fraction): 0.0017
In n-butanol, 328.15 K
  solubility (mole fraction): 0.0021
In n-butanol, 333.15 K
  solubility (mole fraction): 0.0026
In n-butyl acetate, 293.15 K
  solubility (mole fraction): 0.0015
In n-butyl acetate, 298.15 K
  solubility (mole fraction): 0.0019
In n-butyl acetate, 303.15 K
  solubility (mole fraction): 0.0021
In n-butyl acetate, 308.15 K
  solubility (mole fraction): 0.0027
In n-butyl acetate, 313.15 K
  solubility (mole fraction): 0.0032
In n-butyl acetate, 318.15 K
  solubility (mole fraction): 0.0035
In n-butyl acetate, 323.15 K
  solubility (mole fraction): 0.0037
In n-butyl acetate, 328.15 K
  solubility (mole fraction): 0.0041
In n-butyl acetate, 333.15 K
  solubility (mole fraction): 0.0048
In n-propanol, 293.15 K
  solubility (mole fraction): 0.0005
In n-propanol, 298.15 K
  solubility (mole fraction): 0.0006
In n-propanol, 303.15 K
  solubility (mole fraction): 0.0008
In n-propanol, 308.15 K
  solubility (mole fraction): 0.0011
In n-propanol, 313.15 K
  solubility (mole fraction): 0.0013
In n-propanol, 318.15 K
  solubility (mole fraction): 0.0017
In n-propanol, 323.15 K
  solubility (mole fraction): 0.0022
In n-propanol, 328.15 K
  solubility (mole fraction): 0.0028
In n-propanol, 333.15 K
  solubility (mole fraction): 0.0034
